Source: publication PMC3703823 (Clinical cancer research : an official journal of the …, 2011)
Values after ≈ are worked out from the molar mass of the structure shown.

How the values were obtained:
[1] = test system: alpha-1-acid glycoprotein (AAG); experiment: SPR-based biosensor; assay type: binding; details: human
In vitro solubility = assay type: physicochemical
human hepatocytes = details: in vitro; cited from earlier work
[2] = across animal species; cited from earlier work
clinical = details: human, plasma, po
AAG = details: cited from earlier work

Work on `CS(=O)(=O)c1ccc(C(=O)Nc2ccc(Cl)c(-c3ccccn3)c2)c(Cl)c1` [GDC-0449, 2-chloro-N-[4-chloro-3-(pyridin-2-yl)phenyl]-4-[methylsulfonyl]benzamide] yielded a Kd [1] of 13 µM, a solubility (In vitro solubility; pH 0.1) of 990 µg/mL (≈ 2350 µM) and a solubility (In vitro solubility; pH 6.5) of 0.1 µg/mL (≈ 0.237 µM). For the same compound, the “Compound remaining intact following coincubations with human hepatocytes” value (human hepatocytes) was roughly 100%, the Oral bioavailability [2] was “good” and the half-life (clinical) was greater than 168 h. The AUC(0-t) (clinical; 150 mg) was 322 ± 185 µM·h, the Cmax (clinical; 150 mg) was 3.58 ± 1.34 µM and the AUC(0-t) (clinical; 270 mg) was 839 ± 458 µM·h. The Cmax (clinical; 270 mg) was 6.34 ± 3.4 µM, the AUC(0-t) (clinical; 540 mg) was 1010 µM·h and the Cmax (clinical; 540 mg) was 6.81 ± 2.69 µM.
For `CN[C@@H]1C[C@H]2O[C@@](C)([C@@H]1OC)n1c3ccccc3c3c4c(c5c6ccccc6n2c5c31)C(=O)N[C@H]4O` [UCN-01], the “KD for AAG (corresponding to reported KA)” value (AAG) is given as 0.00125 µM.
